The experiment deals with recombinant eIF4E (Homo sapiens (Human), UniProt P06730). The experiment is described as follows: Fluorescence polarization competition assay for eIF4E binding potency. The gist of the method:
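Competition of test compound against 20 nM EDA-m^7GDP-ATTO-550 for 75 nM recombinant eIF4E, pre-incubated 5 min, in 20 mM Tris pH 7.5, 100 mM NaCl, 1 mM DTT, 0.02% Tween-20, 1% DMSO. Equilibrated 30 min at room temperature, dark; fluorescence polarization read. IC50 from 8-point, 3-fold dilution series.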
(In fluorescence polarisation assays a small probe gives low polarisation when free and higher when bound to something large.)

Setting [1] is: fluorescence polarization competition, 75 nM recombinant eIF4E, 20 nM EDA-m7GDP-ATTO-550, IC50 class, read-out: elF4E FP.
[2] abbreviates: inhibition of eIF4E/EDA-m7GDP-ATTO-550 binding by 50%, Table 4B calculated values, read-out: IC50.
Where [3] appears, read: inhibition of eIF4E/EDA-m7GDP-ATTO-550 binding, calculated IC50 values, Table 4B, read-out: IC50.

Read-outs that look alike come from different tables or passages of the source.

Chain of recombinant eIF4E (P06730 whole entry): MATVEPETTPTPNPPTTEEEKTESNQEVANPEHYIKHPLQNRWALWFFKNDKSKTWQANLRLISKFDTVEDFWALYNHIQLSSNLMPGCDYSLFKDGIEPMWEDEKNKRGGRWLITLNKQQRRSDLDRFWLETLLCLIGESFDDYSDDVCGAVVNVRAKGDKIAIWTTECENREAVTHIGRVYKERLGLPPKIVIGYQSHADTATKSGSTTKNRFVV

As to `Cc1nc2cc(C(F)(F)F)c(N3CCN(C)CC3)nc2c(=O)n1CC#Cc1ccc(Cl)cc1-c1ccnc2c(C(=O)O)csc12` [compound 682], the IC50 is under 50 nM under setting [1] and 6.21 nM under setting [2].

Consider `Cc1cc(-c2c(C(F)(F)F)cc3nc(C)n(CCOc4ccc(Cl)cc4-c4cc(C)nc5c(C(=O)O)csc45)c(=O)c3c2C#N)c(C)cn1` [compound 469], for which the IC50 runs as follows: under setting [1], under 50 nM; under setting [2], 2.25 nM.

Turning to `Cc1cc(-c2cc(Cl)ccc2OCCn2c(C)nc3c(C)nc(N4CCNCC4)c(C#N)c3c2=O)c2scc(C(=O)O)c2n1` [compound 878], the IC50 is under 50 nM under setting [1] and 9.63 nM under setting [2].

Regarding `Cc1nc2cnc(/C=C/CN(C)C)c(C#N)c2c(=O)n1CC#Cc1ccc(Cl)cc1-c1ccnc2c(C(=O)O)csc12` [compound 1498], the IC50 under setting [3] is 29.1 nM.

On to `Cc1cc(-c2cc(Cl)c(F)cc2OCCn2c(C)nc3cc(C(F)(F)F)cc(C#N)c3c2=O)c2scc(C(=O)O)c2n1` [compound 571], for which the IC50 was 50 to 1000 nM under setting [1] and 54.8 nM under setting [2].

`Cc1nc2c(F)cc(S(C)(=O)=O)c(C#N)c2c(=O)n1CCOc1ccc(Cl)cc1-c1ccnc2c(C(=O)O)csc12` [compound 293]: the IC50 runs as follows: under setting [1], 50 to 1000 nM; under setting [2], 63.9 nM.

For `N#Cc1cc(F)cc2nc(C(F)F)n(CCOc3ccc(Cl)cc3-c3ccnc4c(C(=O)O)csc34)c(=O)c12` [compound 1938], the IC50 under setting [3] is 46.3 nM.

In the case of `Cc1nc2cc(C(F)(F)F)c(OC(F)F)c(C#N)c2c(=O)n1CCOc1ccc(Cl)cc1-c1ccnc2c(C(=O)O)csc12` [compound 549], the IC50 was under 50 nM under setting [1] and 19.3 nM under setting [2].

For `Cc1cc(-c2cc(Cl)ccc2OCCn2c(C)nc3cc4c(c(C#N)c3c2=O)CCC4N(C)C)c2scc(C(=O)O)c2n1` (stereo not drawn) [compound 613], the IC50 is under 50 nM under setting [1] and 7.89 nM under setting [2].

Consider `Cc1nc2cnc(N(C)C3CCN(C4CC(F)(F)C4)CC3)c(C#N)c2c(=O)n1CC#Cc1ccc(Cl)cc1-c1ccnc2c(C(=O)NS(=O)(=O)C3COC3)csc12` [compound 1811], for which the IC50 under setting [3] is 12.7 nM.

With `Cc1cc(-c2cc(Cl)ccc2OCCn2c(C)nc3cc(C(F)(F)F)c(-c4ccncc4C)nc3c2=O)c2scc(C(=O)O)c2n1` [compound 436], the IC50 reads like this: under setting [1], under 50 nM; under setting [2], 7.17 nM.

On to `Cc1cc(-c2cc(Cl)ccc2OCCn2c(C)nc3cc(C(F)(F)F)c(C4CCCN4C)c(C#N)c3c2=O)c2scc(C(=O)O)c2n1` (stereo not drawn) [compound 708], for which the IC50 reads like this: under setting [1], 50 to 1000 nM; under setting [2], 87.8 nM.

As for `N#Cc1c(C(F)F)ccc2ncn(CCOc3ccc(Cl)cc3-c3cccc(C(=O)O)c3)c(=O)c12` [compound 28], the IC50 runs as follows: under setting [1], 50 to 1000 nM; under setting [2], 61.6 nM.

On to `N#Cc1cc2c(=O)n(C[C@@H]3C[C@H]3c3ccc(Cl)cc3-c3cccc(C(=O)O)c3)cnc2cn1` [compound 43], for which the IC50 reads like this: under setting [1], over 1000 nM; under setting [2], over 10000 nM.

Take `Cc1cc(-c2cc(Cl)ccc2OCCn2c(C)nc3cc(C)c(CN4CCN(C)CC4)c(C#N)c3c2=O)c2scc(C(=O)O)c2n1` [compound 718]: the IC50 is, setting by setting: under setting [1], under 50 nM; under setting [2], 20.1 nM.

As for `Cc1cc(-c2cc(Cl)ccc2OCCn2c(C)nc3cnc(C4(F)CN(C)C4)c(C#N)c3c2=O)c2scc(C(=O)O)c2n1` [compound 1421], the IC50 under setting [3] was 36.6 nM.

For the molecule `Cc1nc2cc(C(F)(F)F)c(-c3ccncc3)c(C#N)c2c(=O)n1CCOc1ccc(Cl)cc1-c1cccc(C(=O)O)c1` [compound 386], the IC50 under setting [1] is under 50 nM and the IC50 under setting [2] is 25.4 nM.

On to `Cc1nc2cc(C(F)(F)F)c(N3CCN(C4CC4)CC3)c(C#N)c2c(=O)n1CCOc1ccc(Cl)cc1-c1ccnc2c(C(=O)NS(C)(=O)=O)csc12` [compound 1179], for which the IC50 runs as follows: under setting [1], under 50 nM; under setting [2], 14.7 nM.

In the case of `Cc1cc(-c2cc(Cl)ccc2OCCn2c(C)nc3cc(C(F)(F)F)c(C4CCN(C)CC4)cc3c2=O)c2sc(C)c(C(=O)O)c2n1` [compound 1971], the IC50 under setting [3] was 51.9 nM.
